Laboratory results taken from ChEMBL document CHEMBL2311352, “Discovery of 4-phenyl-2-phenylaminopyridine based TNIK inhibitors” (Bioorg Med Chem Lett, 2013).

Key:
[1] = biological target: CDK6/cyclin D1 (Homo sapiens) (UniProt P24385+Q00534); assay: Inhibition of CDK6/Cyclin D1 (unknown origin) at 1 uM; format: protein-complex assay
[2] = biological target: Protein kinase C delta type (Homo sapiens) (UniProt Q05655); assay: Inhibition of PKCdelta (unknown origin) at 1 uM
[3] = biological target: Macrophage colony-stimulating factor 1 receptor (Homo sapiens) (UniProt P07333); assay: Inhibition of FMS (unknown origin) at 1 uM
[4] = biological target: Aurora kinase C (Homo sapiens) (UniProt Q9UQB9); assay: Inhibition of aurora C (unknown origin) at 1 uM
[5] = biological target: Tyrosine-protein kinase Lck (Homo sapiens) (UniProt P06239); assay: Inhibition of LCK (unknown origin) at 1 uM
[6] = biological target: Vascular endothelial growth factor receptor 3 (Homo sapiens) (UniProt P35916); assay: Inhibition of VEGFR3 (unknown origin) at 1 uM
[7] = biological target: Tyrosine-protein kinase JAK3 (Homo sapiens) (UniProt P52333); assay: Inhibition of JAK3 (unknown origin) at 1 uM
[8] = biological target: Tyrosine-protein kinase Fyn (Homo sapiens) (UniProt P06241); assay: Inhibition of FYN (unknown origin) at 1 uM
[9] = biological target: Tyrosine-protein kinase ABL2 (Homo sapiens) (UniProt P42684); assay: Inhibition of ABL2 (unknown origin) at 1 uM
[10] = biological target: T1, TRAF2 and NCK-interacting protein kinase (Homo sapiens, UniProt Q9UKE5); assay: Inhibition of TNIK (unknown origin) by ADP glo luminescent assay
[11] = biological target: Receptor-type tyrosine-protein kinase FLT3 (Homo sapiens) (UniProt P36888); assay: Inhibition of FLT3 (unknown origin) at 1 uM
[12] = biological target: Proto-oncogene tyrosine-protein kinase receptor Ret (Homo sapiens) (UniProt P07949); assay: Inhibition of RET (unknown origin) at 1 uM
[13] = biological target: T1, TRAF2 and NCK-interacting protein kinase; assay: Inhibition of TNIK-mediated TCF4/[…] transcription in human HCT116 cells by beta-lactamase reporter gene assay; format: cell-based, HCT-116
[14] = Apparent permeability across apical to basolateral side in human Caco2 cells; format: ADME, cell-based; settings: Caco-2
[15] = biological target: Cyclin-dependent kinase 4/cyclin D1 (Homo sapiens) (UniProt P11802+P24385); assay: Inhibition of CDK4/cyclin D1 (unknown origin) at 1 uM; format: protein-complex assay
[16] = biological target: Insulin-like growth factor 1 receptor (Homo sapiens) (UniProt P08069); assay: Inhibition of IGF1R (unknown origin) at 1 uM
[17] = biological target: Serine/threonine-protein kinase Chk2 (Homo sapiens) (UniProt O96017); assay: Inhibition of CHK2 (unknown origin) at 1 uM
[18] = biological target: Focal adhesion kinase 1 (Homo sapiens) (UniProt Q05397); assay: Inhibition of FAK (unknown origin) at 1 uM
[19] = biological target: BDNF/NT-3 growth factors receptor (Homo sapiens) (UniProt Q16620); assay: Inhibition of TRKB (unknown origin) at 1 uM
[20] = biological target: Tyrosine-protein kinase Lyn (Homo sapiens) (UniProt P07948); assay: Inhibition of LYN (unknown origin) at 1 uM
[21] = biological target: Tyrosine-protein kinase ABL1 (Homo sapiens) (UniProt P00519); assay: Inhibition of ABL1 (unknown origin) at 1 uM
[22] = biological target: Vascular endothelial growth factor receptor 2 (Homo sapiens) (UniProt P35968); assay: Inhibition of VEGFR2 (unknown origin) at 1 uM
[23] = biological target: Serine/threonine-protein kinase 26 (Homo sapiens) (UniProt Q9P289); assay: Inhibition of MST4 (unknown origin) at 1 uM
[24] = biological target: Dual specificity mitogen-activated protein kinase kinase 2 (Homo sapiens) (UniProt P36507); assay: Inhibition of MEK2 (unknown origin) at 1 uM
[25] = biological target: Serine/threonine-protein kinase PAK 4 (Homo sapiens) (UniProt O96013); assay: Inhibition of PAK4 (unknown origin) at 1 uM
[26] = biological target: Cyclin-dependent kinase 2/cyclin A (Homo sapiens) (UniProt P24941+P20248+P78396); assay: Inhibition of CDK2/cyclin A (unknown origin) at 1 uM; format: protein-complex assay
[27] = biological target: Proto-oncogene tyrosine-protein kinase ROS (Homo sapiens) (UniProt P08922); assay: Inhibition of ROS (unknown origin) at 1 uM
[28] = biological target: Platelet-derived growth factor receptor alpha (Homo sapiens) (UniProt P16234); assay: Inhibition of PDGFRalpha (unknown origin) at 1 uM
[29] = biological target: Tyrosine-protein kinase Fer (Homo sapiens) (UniProt P16591); assay: Inhibition of FER (unknown origin) at 1 uM
[30] = biological target: Mast/stem cell growth factor receptor Kit (Homo sapiens) (UniProt P10721); assay: Inhibition of c-KIT (unknown origin) at 1 uM
[31] = biological target: Protein kinase C theta type (Homo sapiens) (UniProt Q04759); assay: Inhibition of PKCtheta (unknown origin) at 1 uM
[32] = biological target: NT-3 growth factor receptor (Homo sapiens) (UniProt Q16288); assay: Inhibition of TRKC (unknown origin) at 1 uM
[33] = biological target: Fibroblast growth factor receptor 3 (Homo sapiens) (UniProt P22607); assay: Inhibition of FGFR3 (unknown origin) at 1 uM
[34] = biological target: Homeodomain-interacting protein kinase 4 (Homo sapiens) (UniProt Q8NE63); assay: Inhibition of HIPK4 (unknown origin) at 1 uM
[35] = biological target: Tyrosine-protein kinase Fes/Fps (Homo sapiens) (UniProt P07332); assay: Inhibition of FES (unknown origin) at 1 uM
[36] = biological target: Serine/threonine-protein kinase Chk1 (Homo sapiens) (UniProt O14757); assay: Inhibition of CHK1 (unknown origin) at 1 uM
[37] = biological target: Ephrin type-A receptor 1 (Homo sapiens) (UniProt P21709); assay: Inhibition of EPHA1 (unknown origin) at 1 uM
[38] = biological target: Tyrosine-protein kinase Fgr (Homo sapiens) (UniProt P09769); assay: Inhibition of FGR (unknown origin) at 1 uM
[39] = biological target: Protein kinase C epsilon (Homo sapiens) (UniProt Q02156); assay: Inhibition of PKCepsilon (unknown origin) at 1 uM
[40] = biological target: Ephrin type-B receptor 1 (Homo sapiens) (UniProt P54762); assay: Inhibition of EPHB1 (unknown origin) at 1 uM
[41] = Apparent permeability across basolateral to apical side in human Caco2 cells; format: ADME, cell-based; settings: Caco-2
[42] = biological target: Platelet-derived growth factor receptor beta (Homo sapiens) (UniProt P09619); assay: Inhibition of PDGFRbeta (unknown origin) at 1 uM
[43] = biological target: Homeodomain-interacting protein kinase 3 (Homo sapiens) (UniProt Q9H422); assay: Inhibition of HIPK3 (unknown origin) at 1 uM
Caco-2 = assay: Ratio of apparent permeability across basolateral to apical side over apical to basolateral side in human Caco2 cells; format: ADME, cell-based
[44] = biological target: Dual specificity mitogen-activated protein kinase kinase 1 (Homo sapiens) (UniProt Q02750); assay: Inhibition of MEK1 (unknown origin) at 1 uM
Chain of Dual specificity mitogen-activated protein kinase kinase 1 (Homo sapiens) (Q02750 whole entry): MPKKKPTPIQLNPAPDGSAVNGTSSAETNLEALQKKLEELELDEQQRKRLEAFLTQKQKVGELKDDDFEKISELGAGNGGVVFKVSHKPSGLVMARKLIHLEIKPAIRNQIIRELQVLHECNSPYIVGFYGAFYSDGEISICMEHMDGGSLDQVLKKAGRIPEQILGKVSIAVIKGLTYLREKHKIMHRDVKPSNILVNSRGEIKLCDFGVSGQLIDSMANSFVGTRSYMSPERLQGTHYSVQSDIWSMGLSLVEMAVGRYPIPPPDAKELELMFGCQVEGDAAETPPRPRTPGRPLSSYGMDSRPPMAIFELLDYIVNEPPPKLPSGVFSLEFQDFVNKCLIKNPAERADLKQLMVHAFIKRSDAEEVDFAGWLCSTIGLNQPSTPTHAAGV

T1 sequence (Q9UKE5 whole entry): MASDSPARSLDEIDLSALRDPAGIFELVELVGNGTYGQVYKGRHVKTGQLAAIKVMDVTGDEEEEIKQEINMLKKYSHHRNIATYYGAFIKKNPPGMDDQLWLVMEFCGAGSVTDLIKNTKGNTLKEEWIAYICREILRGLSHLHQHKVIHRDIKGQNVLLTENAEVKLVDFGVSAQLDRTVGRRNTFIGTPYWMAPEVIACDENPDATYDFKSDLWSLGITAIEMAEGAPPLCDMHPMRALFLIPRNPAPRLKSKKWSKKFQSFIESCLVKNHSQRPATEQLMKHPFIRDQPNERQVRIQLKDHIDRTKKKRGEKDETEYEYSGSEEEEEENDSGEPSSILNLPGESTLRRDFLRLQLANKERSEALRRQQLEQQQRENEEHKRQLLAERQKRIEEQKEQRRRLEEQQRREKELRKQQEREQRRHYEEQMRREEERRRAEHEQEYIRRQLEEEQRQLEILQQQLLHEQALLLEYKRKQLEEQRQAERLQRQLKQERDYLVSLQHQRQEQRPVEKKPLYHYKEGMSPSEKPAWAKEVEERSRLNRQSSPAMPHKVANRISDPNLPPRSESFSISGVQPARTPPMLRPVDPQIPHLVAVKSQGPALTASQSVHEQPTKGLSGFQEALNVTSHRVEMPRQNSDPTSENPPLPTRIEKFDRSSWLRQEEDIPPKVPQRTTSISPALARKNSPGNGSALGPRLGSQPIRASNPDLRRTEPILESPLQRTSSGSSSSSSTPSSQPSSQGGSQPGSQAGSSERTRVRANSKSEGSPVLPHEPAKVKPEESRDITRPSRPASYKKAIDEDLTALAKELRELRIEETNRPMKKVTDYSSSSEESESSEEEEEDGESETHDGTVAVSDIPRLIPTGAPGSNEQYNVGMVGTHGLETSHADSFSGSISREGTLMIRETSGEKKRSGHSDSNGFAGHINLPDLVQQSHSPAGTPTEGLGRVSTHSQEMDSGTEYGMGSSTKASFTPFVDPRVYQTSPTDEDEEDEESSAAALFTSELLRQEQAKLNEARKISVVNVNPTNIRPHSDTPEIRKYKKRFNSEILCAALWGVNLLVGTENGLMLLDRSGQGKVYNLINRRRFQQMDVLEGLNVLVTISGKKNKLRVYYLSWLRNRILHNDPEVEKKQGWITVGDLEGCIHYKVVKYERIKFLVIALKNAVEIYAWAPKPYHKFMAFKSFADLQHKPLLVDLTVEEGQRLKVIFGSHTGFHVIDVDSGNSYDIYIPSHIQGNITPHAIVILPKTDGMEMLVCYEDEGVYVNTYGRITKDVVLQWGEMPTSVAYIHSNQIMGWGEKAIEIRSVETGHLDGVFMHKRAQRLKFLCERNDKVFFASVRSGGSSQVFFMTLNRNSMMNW
Chain of Platelet-derived growth factor receptor beta (Homo sapiens) (P09619 whole entry): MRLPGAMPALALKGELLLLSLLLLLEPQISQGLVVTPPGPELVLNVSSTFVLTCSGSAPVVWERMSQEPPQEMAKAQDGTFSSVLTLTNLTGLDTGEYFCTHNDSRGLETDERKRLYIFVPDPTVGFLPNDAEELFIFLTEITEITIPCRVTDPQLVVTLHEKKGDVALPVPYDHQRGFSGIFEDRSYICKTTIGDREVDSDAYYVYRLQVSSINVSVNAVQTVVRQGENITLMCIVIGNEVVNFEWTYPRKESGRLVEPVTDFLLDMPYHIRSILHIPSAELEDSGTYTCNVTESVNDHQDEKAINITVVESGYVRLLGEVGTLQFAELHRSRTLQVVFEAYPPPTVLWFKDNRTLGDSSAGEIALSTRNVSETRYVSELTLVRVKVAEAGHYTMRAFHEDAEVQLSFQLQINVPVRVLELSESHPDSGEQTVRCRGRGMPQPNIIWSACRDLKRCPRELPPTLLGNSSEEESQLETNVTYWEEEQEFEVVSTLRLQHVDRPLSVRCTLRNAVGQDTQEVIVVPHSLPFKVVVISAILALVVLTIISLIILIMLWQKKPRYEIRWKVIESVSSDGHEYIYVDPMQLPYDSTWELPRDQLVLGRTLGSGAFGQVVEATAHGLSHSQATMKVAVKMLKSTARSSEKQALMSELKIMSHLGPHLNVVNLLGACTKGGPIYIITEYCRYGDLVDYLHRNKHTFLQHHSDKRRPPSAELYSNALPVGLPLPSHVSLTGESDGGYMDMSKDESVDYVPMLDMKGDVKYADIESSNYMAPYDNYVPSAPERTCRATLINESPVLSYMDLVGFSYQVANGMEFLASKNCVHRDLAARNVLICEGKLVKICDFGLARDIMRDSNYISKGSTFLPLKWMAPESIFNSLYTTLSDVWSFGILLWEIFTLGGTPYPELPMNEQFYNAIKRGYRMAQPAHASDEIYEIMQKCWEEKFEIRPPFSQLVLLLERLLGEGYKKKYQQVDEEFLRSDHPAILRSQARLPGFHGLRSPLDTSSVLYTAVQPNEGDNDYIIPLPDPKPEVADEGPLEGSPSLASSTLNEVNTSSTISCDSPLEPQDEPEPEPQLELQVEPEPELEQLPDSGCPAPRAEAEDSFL
Chain of Ephrin type-A receptor 1 (Homo sapiens) (P21709 whole entry): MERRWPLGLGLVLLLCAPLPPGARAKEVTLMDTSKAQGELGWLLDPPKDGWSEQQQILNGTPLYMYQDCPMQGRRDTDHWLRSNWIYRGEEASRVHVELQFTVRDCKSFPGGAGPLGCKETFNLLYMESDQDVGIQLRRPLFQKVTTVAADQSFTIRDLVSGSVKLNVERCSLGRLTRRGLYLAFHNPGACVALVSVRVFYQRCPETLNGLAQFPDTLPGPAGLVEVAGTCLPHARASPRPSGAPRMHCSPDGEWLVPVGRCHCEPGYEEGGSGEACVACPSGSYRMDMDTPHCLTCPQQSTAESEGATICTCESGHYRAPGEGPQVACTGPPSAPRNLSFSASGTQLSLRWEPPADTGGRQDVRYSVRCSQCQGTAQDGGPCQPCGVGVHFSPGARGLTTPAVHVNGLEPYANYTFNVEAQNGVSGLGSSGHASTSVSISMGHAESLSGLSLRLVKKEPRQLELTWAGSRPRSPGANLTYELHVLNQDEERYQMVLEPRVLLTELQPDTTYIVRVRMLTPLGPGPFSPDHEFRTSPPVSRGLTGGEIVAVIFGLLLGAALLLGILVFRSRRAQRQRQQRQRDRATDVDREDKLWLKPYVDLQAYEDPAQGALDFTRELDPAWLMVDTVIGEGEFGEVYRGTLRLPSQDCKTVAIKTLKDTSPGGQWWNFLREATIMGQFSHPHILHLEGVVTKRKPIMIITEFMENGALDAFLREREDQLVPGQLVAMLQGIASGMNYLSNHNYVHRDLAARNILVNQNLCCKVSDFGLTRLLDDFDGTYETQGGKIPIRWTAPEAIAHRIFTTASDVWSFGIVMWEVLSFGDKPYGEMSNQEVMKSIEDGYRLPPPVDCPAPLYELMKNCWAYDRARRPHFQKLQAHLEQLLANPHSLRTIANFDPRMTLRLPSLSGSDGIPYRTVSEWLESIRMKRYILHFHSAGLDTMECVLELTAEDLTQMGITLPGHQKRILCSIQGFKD
Chain of Tyrosine-protein kinase Fgr (Homo sapiens) (P09769 2-529 limits assumed): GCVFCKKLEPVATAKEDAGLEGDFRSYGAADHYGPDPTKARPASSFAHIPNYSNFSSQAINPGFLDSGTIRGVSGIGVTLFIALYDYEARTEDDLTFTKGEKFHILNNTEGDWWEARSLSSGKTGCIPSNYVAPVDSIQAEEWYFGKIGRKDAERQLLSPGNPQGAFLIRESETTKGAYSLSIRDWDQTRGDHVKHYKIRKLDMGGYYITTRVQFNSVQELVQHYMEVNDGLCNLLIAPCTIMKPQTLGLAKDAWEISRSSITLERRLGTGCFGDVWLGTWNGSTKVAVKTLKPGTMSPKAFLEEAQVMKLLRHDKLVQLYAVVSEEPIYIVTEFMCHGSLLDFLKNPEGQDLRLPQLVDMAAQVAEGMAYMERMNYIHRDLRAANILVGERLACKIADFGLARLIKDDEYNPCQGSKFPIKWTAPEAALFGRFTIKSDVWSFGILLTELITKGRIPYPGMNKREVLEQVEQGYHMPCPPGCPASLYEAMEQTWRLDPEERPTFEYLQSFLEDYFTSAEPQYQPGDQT
Chain of Protein kinase C delta type (Homo sapiens) (Q05655 whole entry, looked up): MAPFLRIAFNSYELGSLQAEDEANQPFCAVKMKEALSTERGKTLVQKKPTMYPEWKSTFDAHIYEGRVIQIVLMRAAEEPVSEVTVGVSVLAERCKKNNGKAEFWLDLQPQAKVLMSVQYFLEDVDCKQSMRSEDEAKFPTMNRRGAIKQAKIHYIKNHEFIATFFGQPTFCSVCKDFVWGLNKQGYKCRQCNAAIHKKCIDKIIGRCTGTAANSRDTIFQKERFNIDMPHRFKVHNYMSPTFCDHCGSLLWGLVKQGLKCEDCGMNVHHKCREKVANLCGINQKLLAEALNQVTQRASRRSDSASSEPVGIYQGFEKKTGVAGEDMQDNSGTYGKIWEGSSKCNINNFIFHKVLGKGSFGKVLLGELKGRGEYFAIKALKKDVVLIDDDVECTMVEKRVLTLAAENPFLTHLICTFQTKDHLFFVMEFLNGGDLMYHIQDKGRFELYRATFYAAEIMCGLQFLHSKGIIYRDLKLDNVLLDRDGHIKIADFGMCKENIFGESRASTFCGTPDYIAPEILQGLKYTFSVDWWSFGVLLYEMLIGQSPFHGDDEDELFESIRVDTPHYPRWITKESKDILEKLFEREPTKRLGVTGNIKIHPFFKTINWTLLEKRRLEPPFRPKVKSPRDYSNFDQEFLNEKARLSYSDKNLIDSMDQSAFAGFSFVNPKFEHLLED

COc1cc(Nc2ncc(Cl)c(-c3cccc(CC#N)c3)n2)ccc1N1CCN(C)CC1
7.7 ×10⁻⁶ cm/s: Papp B→A [41]
> 50%: inhibition [26]
50%: inhibition [2] | inhibition [8] | inhibition [18] | inhibition [23] | inhibition [25] | inhibition [31] | inhibition [37] | inhibition [38] | inhibition [39] | inhibition [40]
8 ×10⁻⁶ cm/s: Papp A→B [14]
65 nM: IC50 [10]
> 80%: inhibition [1] | inhibition [3] | inhibition [4] | inhibition [5] | inhibition [9] | inhibition [15] | inhibition [16] | inhibition [17] | inhibition [19] | inhibition [20] | inhibition [21] | inhibition [24] | inhibition [28] | inhibition [29] | inhibition [30] | inhibition [34] | inhibition [35] | inhibition [36] | inhibition [42] | inhibition [43] | inhibition [44]
350 nM: IC50 [13]
> 95%: inhibition [6] | inhibition [7] | inhibition [11] | inhibition [12] | inhibition [22] | inhibition [27] | inhibition [32] | inhibition [33]
0.96: Ratio (Caco-2)
